Experimental data as given in ChEMBL document CHEMBL5505952, “Targeting SARS-CoV-2 entry processes: The promising potential and future of host-targeted small-molecule inhibitors” (Eur J Med Chem, 2024).

Test system: SARS-CoV-2
Type: functional, organism-based
Conditions: Severe acute respiratory syndrome coronavirus 2, Vero C1008

Work on CC(CN(C)C)CN1c2ccccc2Sc2ccccc21 (stereo unspecified) [METHYLPROMAZINE] yielded an EC50 of 2420 nM.
